Test results: PubChem BioAssay AID1259407 (Chemical Carcinogenesis Research Information System (CCRIS), 2018)
The source made the active and inactive calls. How the calls were made is not given here.

System: CCRIS mutagenicity, Ames/micronucleus/aberration tests
Test: CCRIS mutagenicity studies
[1] = Test System: AMES SALMONELLA TYPHIMURIUM, Strain/Indicator: TA100, Metabolic Activation: NONE, Method: STANDARD PLATE
[2] = Test System: AMES SALMONELLA TYPHIMURIUM, Strain/Indicator: TA1535, Metabolic Activation: NONE, Method: STANDARD PLATE

For `CC(=O)N[C@@H]1[C@@H](O[C@@H]2O[C@H](C(=O)O)[C@@H](O[C@@H]3O[C@H](CO)[C@@H](O)[C@H](O[C@@H]4O[C@H](C(=O)O)[C@@H](O)[C@H](O)[C@H]4O)[C@H]3NC(C)=O)[C@H](O)[C@H]2O)[C@H](O)[C@@H](CO)O[C@H]1O`, which mutagenic call (Test System: AMES SALMONELLA TYPHIMURIUM, Strain/Indicator: TA98, Metabolic Activation: NONE) is on record?
Its mutagenic call is “inactive; negative”.

What about the mutagenic call (Test System: AMES SALMONELLA TYPHIMURIUM, Strain/Indicator: TA98, Metabolic Activation: NONE, Method: PREINCUBATION) of the same molecule?
The mutagenic call was “inactive; negative”.

What about the mutagenic call (Test System: AMES SALMONELLA TYPHIMURIUM, Strain/Indicator: TA98, Metabolic Activation: RAT, LIVER, S-9, PHENOBARBITAL AND 5,6-BENZOFLAVONE, Method: PREINCUBATION) of the same molecule?
Its mutagenic call is “inactive; negative”.

What about the mutagenic call (Test System: AMES SALMONELLA TYPHIMURIUM, Strain/Indicator: TA98, Metabolic Activation: RAT, LIVER, S-9, Method: PREINCUBATION) of the same molecule?
Its mutagenic call is “inactive; negative”.

And the mutagenic call (Test System: AMES SALMONELLA TYPHIMURIUM, Strain/Indicator: TA98, Metabolic Activation: S-9)?
Its mutagenic call is “inactive; negative”.

And the mutagenic call (Test System: AMES SALMONELLA TYPHIMURIUM, Strain/Indicator: TA100, Metabolic Activation: NONE)?
The mutagenic call was “inactive; negative”.

And the mutagenic call (Test System: AMES SALMONELLA TYPHIMURIUM, Strain/Indicator: TA100, Metabolic Activation: NONE, Method: PREINCUBATION)?
The mutagenic call was “inactive; negative”.

What about the mutagenic call (Test System: AMES SALMONELLA TYPHIMURIUM, Strain/Indicator: TA100, Metabolic Activation: RAT, LIVER, S-9, PHENOBARBITAL AND 5,6-BENZOFLAVONE, Method: PREINCUBATION) of the same molecule?
The mutagenic call was “inactive; negative”.

What about the mutagenic call (Test System: AMES SALMONELLA TYPHIMURIUM, Strain/Indicator: TA100, Metabolic Activation: RAT, LIVER, S-9, Method: PREINCUBATION) of the same molecule?
Its mutagenic call is “inactive; negative”.

What about the mutagenic call (Test System: AMES SALMONELLA TYPHIMURIUM, Strain/Indicator: TA100, Metabolic Activation: S-9) of the same molecule?
Its mutagenic call is “inactive; negative”.

And the mutagenic call (Test System: AMES SALMONELLA TYPHIMURIUM, Strain/Indicator: TA1535, Metabolic Activation: NONE)?
Its mutagenic call is “inactive; negative”.

And the mutagenic call (Test System: AMES SALMONELLA TYPHIMURIUM, Strain/Indicator: TA1535, Metabolic Activation: NONE, Method: PREINCUBATION)?
Its mutagenic call is “inactive; negative”.

What about the mutagenic call (Test System: AMES SALMONELLA TYPHIMURIUM, Strain/Indicator: TA1535, Metabolic Activation: RAT, LIVER, S-9, PHENOBARBITAL AND 5,6-BENZOFLAVONE, Method: PREINCUBATION) of the same molecule?
The mutagenic call was “inactive; negative”.

What about the mutagenic call (Test System: AMES SALMONELLA TYPHIMURIUM, Strain/Indicator: TA1535, Metabolic Activation: RAT, LIVER, S-9, Method: PREINCUBATION) of the same molecule?
Its mutagenic call is “inactive; negative”.

And the mutagenic call (Test System: AMES SALMONELLA TYPHIMURIUM, Strain/Indicator: TA1535, Metabolic Activation: S-9)?
Its mutagenic call is “inactive; negative”.

And the mutagenic call (Test System: AMES SALMONELLA TYPHIMURIUM, Strain/Indicator: TA1537, Metabolic Activation: NONE)?
Its mutagenic call is “inactive; negative”.

What about the mutagenic call (Test System: AMES SALMONELLA TYPHIMURIUM, Strain/Indicator: TA1537, Metabolic Activation: NONE, Method: PREINCUBATION) of the same molecule?
Its mutagenic call is “inactive; negative”.

What about the mutagenic call (Test System: AMES SALMONELLA TYPHIMURIUM, Strain/Indicator: TA1537, Metabolic Activation: RAT, LIVER, S-9, PHENOBARBITAL AND 5,6-BENZOFLAVONE, Method: PREINCUBATION) of the same molecule?
The mutagenic call was “inactive; negative”.

And the mutagenic call (Test System: AMES SALMONELLA TYPHIMURIUM, Strain/Indicator: TA1537, Metabolic Activation: RAT, LIVER, S-9, Method: PREINCUBATION)?
The mutagenic call was “inactive; negative”.

What about the mutagenic call (Test System: AMES SALMONELLA TYPHIMURIUM, Strain/Indicator: TA1537, Metabolic Activation: S-9) of the same molecule?
The mutagenic call was “inactive; negative”.

And the mutagenic call (Test System: E. COLI, Strain/Indicator: WP2 UVRA, Metabolic Activation: NONE)?
The mutagenic call was “inactive; negative”.

And the mutagenic call (Test System: E. COLI, Strain/Indicator: WP2 UVRA, Metabolic Activation: S-9)?
Its mutagenic call is “inactive; negative”.

And the mutagenic call (Test System: E.COLI, Strain/Indicator: WP2 UVRA, Metabolic Activation: NONE, Method: PREINCUBATION)?
Its mutagenic call is “inactive; negative”.

And the mutagenic call (Test System: E.COLI, Strain/Indicator: WP2 UVRA, Metabolic Activation: RAT, LIVER, S-9, PHENOBARBITAL AND 5,6-BENZOFLAVONE, Method: PREINCUBATION)?
Its mutagenic call is “inactive; negative”.

What about the mutagenic call (Test System: E.COLI, Strain/Indicator: WP2 UVRA, Metabolic Activation: RAT, LIVER, S-9, Method: PREINCUBATION) of the same molecule?
The mutagenic call was “inactive; negative”.

What does the source list for `C[n+]1cccc2c1C=C[C@H]1O[C@@H]21`?
mutagenic call [1]: inactive; negative; mutagenic call (Test System: AMES SALMONELLA TYPHIMURIUM, Strain/Indicator: TA100, Metabolic Activation: RAT, LIVER, S-9, AROCLOR 1254 (20%), Method: STANDARD PLATE): active; positive

`NNC(=O)c1ccncc1` was tested. Which mutagenic call (Test System: AMES SALMONELLA TYPHIMURIUM, Strain/Indicator: G46, Metabolic Activation: HAMSTER, LIVER, HOMOGENATE (HEAT-INACTIVATED), Method: PREINCUBATION) did it give?
The mutagenic call was “inactive; negative”.

And the mutagenic call (Test System: AMES SALMONELLA TYPHIMURIUM, Strain/Indicator: G46, Metabolic Activation: HAMSTER, LIVER, HOMOGENATE, Method: PREINCUBATION)?
Its mutagenic call is “active; positive”.

And the mutagenic call (Test System: AMES SALMONELLA TYPHIMURIUM, Strain/Indicator: G46, Metabolic Activation: MOUSE, LIVER, HOMOGENATE, Method: PREINCUBATION)?
Its mutagenic call is “active; positive”.

What about the mutagenic call (Test System: AMES SALMONELLA TYPHIMURIUM, Strain/Indicator: G46, Metabolic Activation: NONE, Method: STANDARD PLATE) of the same molecule?
Its mutagenic call is “inactive; negative”.

What about the mutagenic call (Test System: AMES SALMONELLA TYPHIMURIUM, Strain/Indicator: G46, Metabolic Activation: RAT, LIVER, HOMOGENATE, Method: PREINCUBATION) of the same molecule?
Its mutagenic call is “active; positive”.

What about the mutagenic call (Test System: AMES SALMONELLA TYPHIMURIUM, Strain/Indicator: TA92, Metabolic Activation: NONE, Method: STANDARD PLATE) of the same molecule?
The mutagenic call was “active; positive”.

And the mutagenic call (Test System: AMES SALMONELLA TYPHIMURIUM, Strain/Indicator: TA100, Metabolic Activation: MOUSE, LIVER, S-9, Method: STANDARD PLATE)?
Its mutagenic call is “inactive; negative”.

What about the mutagenic call [1] of the same molecule?
The mutagenic call was “active; positive”.

And the mutagenic call (Test System: AMES SALMONELLA TYPHIMURIUM, Strain/Indicator: TA102, Metabolic Activation: RAT, LIVER, S-9, AROCLOR 1254, Method: STANDARD PLATE)?
The mutagenic call was “inactive; negative”.

And the mutagenic call (Test System: AMES SALMONELLA TYPHIMURIUM, Strain/Indicator: TA1535, Metabolic Activation: HAMSTER, LIVER, HOMOGENATE (HEAT-INACTIVATED), Method: PREINCUBATION)?
The mutagenic call was “inactive; negative”.

And the mutagenic call (Test System: AMES SALMONELLA TYPHIMURIUM, Strain/Indicator: TA1535, Metabolic Activation: HAMSTER, LIVER, HOMOGENATE, Method: PREINCUBATION)?
Its mutagenic call is “active; positive”.

What about the mutagenic call (Test System: AMES SALMONELLA TYPHIMURIUM, Strain/Indicator: TA1535, Metabolic Activation: MOUSE, LIVER, HOMOGENATE, Method: PREINCUBATION) of the same molecule?
The mutagenic call was “active; positive”.

What about the mutagenic call (Test System: AMES SALMONELLA TYPHIMURIUM, Strain/Indicator: TA1535, Metabolic Activation: MOUSE, LIVER, POSTMITOCHONDRIAL SUPERNATANT, Method: PREINCUBATION) of the same molecule?
Its mutagenic call is “inactive; negative”.

And the mutagenic call (Test System: AMES SALMONELLA TYPHIMURIUM, Strain/Indicator: TA1535, Metabolic Activation: MOUSE, LIVER, S-9, Method: PREINCUBATION)?
Its mutagenic call is “inactive; negative”.

And the mutagenic call [2]?
The mutagenic call was “active; positive”.

And the mutagenic call (Test System: AMES SALMONELLA TYPHIMURIUM, Strain/Indicator: TA1535, Metabolic Activation: RAT, LIVER, HOMOGENATE, Method: PREINCUBATION)?
Its mutagenic call is “active; positive”.

Which mutagenic call [2] does the source give for `CN1CCN=N1` here?
The mutagenic call was “active; positive”.

How did the mutagenic call (End Point: IN VITRO CHROMOSOMAL ABERRATIONS, Test System: CHO CELLS, Metabolic Activation: NONE) turn out when `C[C@]12CC[C@@H]3c4ccc(O)cc4CC[C@H]3[C@@H]1CCC2=O` was run?
The mutagenic call was “active; positive”.

And the mutagenic call (End Point: IN VITRO MICRONUCLEUS, Test System: MCF-7 (HUMAN MAMMARY CARCINOMA), Metabolic Activation: NONE)?
Its mutagenic call is “active; positive”.

What about the mutagenic call (Test System: UDS RAT HEPATOCYTES, Strain/Indicator: THY INCORP (18-20 HR), Metabolic Activation: NONE, Method: LIQUID SCINTILLATION COUNTING) of the same molecule?
Its mutagenic call is “inactive; negative”.
